Laboratory results: patent US11124537B2, “Inhibitors of glucocorticoid receptor” (ORIC Pharmaceuticals, Inc., priority 2015, dated 2021)

Target: GR (Homo sapiens (Human), UniProt P04150)
Assay: In Vitro GR Luciferase Reporter Assay
Type: cell-based
Conditions: CHO-K1-GR-MMTV-Luc reporter cells, antagonist assay, 10 nM Dexamethasone, 18-24 hours
Source text: Example 4: In Vitro GR Luciferase Reporter Assay
Cell Line: CHO-K1-GR-MMTV-Luc reporter cells
Culture Media: DMEM (with phenol red)+10% FBS
Assay Media: DMEM (without phenol red)+10% CSS
Culture CHO-K1-GR-MMTV-Luc reporter cells in 15 cm plates in Culture Media at conditions less than 90% confluence.
Prepare 200×DMSO 1:5 serial dilutions of control and test compounds in 96-well non-sterile V bottom plate in DMSO, 8 serial dilutions for each compound.
Prepare 5× Assay Media diluted compound serial dilutions in 96-well non-sterile V bottom plate: Add 97.5 uL/well of Assay Media into 96-well then add 2.5 ul of 200× concentration of compounds and mix well.
Seed cells for Antagonist Assay: […] CHO-K1-GR-MMTV-Luc reporter cells were seeded in a Corning 3707 flat clear bottom 384-well white TC plate in 20 ul of Assay Media containing 12.5 nM Dexamethasone (final concentration=10 nM).
Add compounds: 5 ul of assay media diluted compounds were added to appropriate wells and followed a quick spin (1000 rpm, 10 sec) to bring media and cells to the bottom of plate. The plates were covered with SealMate film to avoid evaporation and placed in 37° C. incubator for approximately 18-24 hours.
Read plates: Equilibrate appropriate amount of Promega OneGlo luciferase reagent to room temperature. Remove the plates from incubator and add 25 uL of OneGlo reagent/well by multiple channel pipette and read the plates with Tecan F500 luminometer within 3 minutes.
The ability of the compounds disclosed herein to inhibit GR activity was quantified and the respective IC50 value was determined. Table 3 provides the cellular IC50 values of various substituted steroidal compounds disclosed herein.

Chain of GR (P04150 whole entry): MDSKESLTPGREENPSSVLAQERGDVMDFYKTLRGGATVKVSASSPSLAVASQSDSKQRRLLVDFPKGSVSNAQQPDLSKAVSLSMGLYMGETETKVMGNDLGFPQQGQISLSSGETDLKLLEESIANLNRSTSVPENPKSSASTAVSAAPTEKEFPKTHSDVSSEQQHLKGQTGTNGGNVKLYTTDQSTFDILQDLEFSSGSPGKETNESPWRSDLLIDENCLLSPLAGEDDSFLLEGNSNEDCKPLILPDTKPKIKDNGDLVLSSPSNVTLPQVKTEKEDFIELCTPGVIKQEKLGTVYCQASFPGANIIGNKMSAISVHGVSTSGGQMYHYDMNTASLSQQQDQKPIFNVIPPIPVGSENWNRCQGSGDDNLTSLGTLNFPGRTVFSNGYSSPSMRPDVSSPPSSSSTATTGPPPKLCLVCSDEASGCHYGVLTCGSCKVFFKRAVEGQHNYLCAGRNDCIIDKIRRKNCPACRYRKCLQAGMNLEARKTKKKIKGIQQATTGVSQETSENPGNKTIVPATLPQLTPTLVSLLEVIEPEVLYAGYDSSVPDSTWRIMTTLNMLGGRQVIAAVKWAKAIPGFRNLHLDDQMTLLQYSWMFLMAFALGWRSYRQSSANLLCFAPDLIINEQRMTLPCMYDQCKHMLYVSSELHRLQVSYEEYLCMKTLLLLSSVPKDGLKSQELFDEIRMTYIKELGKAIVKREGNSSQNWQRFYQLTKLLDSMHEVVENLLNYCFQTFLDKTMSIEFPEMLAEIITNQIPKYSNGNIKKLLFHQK

Row | IC50 | Structure (SMILES)
1 | ≤ 0.1 µM | CN(C)c1ccc([C@H]2C[C@@]3(C)[C@@H](CC[C@@]3(O)C#CC(C)(C)C)[C@@H]3CCC4=CC(=O)CCC4=C32)cc1
2 | ≤ 0.1 µM | CN(C)c1ccc([C@H]2C[C@@]3(C)[C@@H](CC[C@@]3(O)C#Cc3ccccn3)[C@@H]3CCC4=CC(=O)CCC4=C32)cc1
3 | ≤ 0.1 µM | CN(C)c1ccc([C@H]2C[C@@]3(C)[C@@H](CC[C@@]3(O)C#Cc3ccc(Cl)cc3)[C@@H]3CCC4=CC(=O)CCC4=C32)cc1
4 | ≤ 0.1 µM | [2H]C([2H])([2H])N(c1ccc([C@H]2C[C@@]3(C)[C@@H](CC[C@@]3(O)C#CC(C)(C)C)[C@@H]3CCC4=CC(=O)CCC4=C32)cc1)C([2H])([2H])[2H]
5 | ≤ 0.1 µM | CC(C)C#C[C@]1(O)CC[C@H]2[C@@H]3CCC4=CC(=O)CCC4=C3[C@@H](c3ccc4c(c3)OCCO4)C[C@@]21C
6 | ≤ 0.1 µM | C[C@]12C[C@H](c3ccc4c(c3)OCO4)C3=C4CCC(=O)C=C4CC[C@H]3[C@@H]1CC[C@@]2(O)C#Cc1ccc(S(C)(=O)=O)cc1
7 | ≤ 0.1 µM | C[C@]12C[C@H](c3ccc4c(c3)OCO4)C3=C4CCC(=O)C=C4CC[C@H]3[C@@H]1CC[C@@]2(O)C#CC(F)(F)F
8 | ≤ 0.1 µM | C[C@]12C[C@H](c3ccc4c(c3)OCCO4)C3=C4CCC(=O)C=C4CC[C@H]3[C@@H]1CC[C@@]2(O)C#CC1CC1
9 | ≤ 0.1 µM | CC(C)(C)C#C[C@]1(O)CC[C@H]2[C@@H]3CCC4=CC(=O)CCC4=C3[C@@H](c3ccc4c(c3)OCCO4)C[C@@]21C
10 | ≤ 0.1 µM | C[C@]12C[C@H](c3ccc4c(c3)OCCO4)C3=C4CCC(=O)C=C4CC[C@H]3[C@@H]1CC[C@@]2(O)C#CC(F)(F)F
11 | ≤ 0.1 µM | C[C@]12C[C@H](c3ccc4c(c3)OCO4)C3=C4CCC(=O)C=C4CC[C@H]3[C@@H]1CC[C@@]2(O)C#CC1CC1
12 | ≤ 0.1 µM | CC(C)C#C[C@]1(O)CC[C@H]2[C@@H]3CCC4=CC(=O)CCC4=C3[C@@H](c3ccc4c(c3)OCO4)C[C@@]21C
13 | > 0.1 µM | CC(C)c1ccc([C@H]2C[C@@]3(C)[C@@H](C[C@@H](C)[C@@]3(O)C#CC(C)(C)C)[C@@H]3CCC4=CC(=O)CCC4=C32)cc1
14 | ≤ 0.1 µM | COC(C)(C)C#C[C@]1(O)CC[C@H]2[C@@H]3CCC4=CC(=O)CCC4=C3[C@@H](c3ccc(N(C)C)cc3)C[C@@]21C
15 | > 0.1 µM | CN(C(=O)CO)c1ccc([C@H]2C[C@@]3(C)[C@@H](CC[C@@]3(O)C#CC(C)(C)C)[C@@H]3CCC4=CC(=O)CCC4=C32)cc1
16 | ≤ 0.1 µM | CC(C)(C)C#C[C@]1(O)CC[C@H]2[C@@H]3CCC4=CC(=O)CCC4=C3[C@@H](c3ccc(N4CCS(=O)(=O)CC4)cc3)C[C@@]21C
17 | ≤ 0.1 µM | [2H]C([2H])([2H])C#C[C@]1(O)CC[C@H]2[C@@H]3CCC4=CC(=O)CCC4=C3[C@@H](c3cc(F)c(C)c(F)c3)C[C@@]21C
18 | ≤ 0.1 µM | COCCN(C)c1ccc([C@H]2C[C@@]3(C)[C@@H](CC[C@@]3(O)C#CC(C)(C)C)[C@@H]3CCC4=CC(=O)CCC4=C32)cc1
19 | ≤ 0.1 µM | CN(CC(F)(F)F)c1ccc([C@H]2C[C@@]3(C)[C@@H](CC[C@@]3(O)C#CC(C)(C)C)[C@@H]3CCC4=CC(=O)CCC4=C32)cc1
20 | ≤ 0.1 µM | COC(C)(C)C#C[C@]1(O)CC[C@H]2[C@@H]3CCC4=CC(=O)CCC4=C3[C@@H](c3ccc(N(C)CC(F)(F)F)cc3)C[C@@]21C
21 | ≤ 0.1 µM | COCCN(C)c1ccc([C@H]2C[C@@]3(C)[C@@H](CC[C@@]3(O)C#CC(C)(C)OC)[C@@H]3CCC4=CC(=O)CCC4=C32)cc1

Row | IC50 | Structure (SMILES)
22 | ≤ 0.1 µM | CC(C)(C)C#C[C@]1(O)CC[C@H]2[C@@H]3CCC4=CC(=O)CCC4=C3[C@@H](c3ccc(N4CCN(C(=O)CO)CC4)cc3)C[C@@]21C
23 | > 0.1 µM | COC(C)(C)C#C[C@]1(O)CC[C@H]2[C@@H]3CCC4=CC(=O)CCC4=C3[C@@H](c3ccc(N4CCN(C(=O)CO)CC4)cc3)C[C@@]21C
24 | > 0.1 µM | COC1CN(c2ccc([C@H]3C[C@@]4(C)[C@@H](CC[C@@]4(O)C#CC(C)(C)OC)[C@@H]4CCC5=CC(=O)CCC5=C43)cc2)C1
25 | ≤ 0.1 µM | CC(=O)N1CCN(c2ccc([C@H]3C[C@@]4(C)[C@@H](CC[C@@]4(O)C#CC(C)(C)C)[C@@H]4CCC5=CC(=O)CCC5=C43)cc2)CC1
26 | > 0.1 µM | COC(C)(C)C#C[C@]1(O)CC[C@H]2[C@@H]3CCC4=CC(=O)CCC4=C3[C@@H](c3ccc(N4CCS(=O)(=O)CC4)cc3)C[C@@]21C
27 | ≤ 0.1 µM | CC(C)(C)C#C[C@]1(O)CC[C@H]2[C@@H]3CCC4=CC(=O)CCC4=C3[C@@H](c3ccc(C(C)(CO)CO)cc3)C[C@@]21C
28 | ≤ 0.1 µM | CC(C)(C)C#C[C@]1(O)CC[C@H]2[C@@H]3CCC4=CC(=O)CCC4=C3[C@@H](c3ccc(C4(C)COC4)cc3)C[C@@]21C
29 | ≤ 0.1 µM | CN(C)c1ccc([C@H]2C[C@@]3(C)[C@@H](CC[C@@]3(O)C#Cc3ccccc3)[C@@H]3CCC4=CC(=O)CCC4=C32)cc1 [drawing 266]
30 | ≤ 0.1 µM | CC(C)(C)C#C[C@]1(O)CC[C@H]2[C@@H]3CCC4=CC(=O)CCC4=C3[C@@H](c3ccc(C(C)(C)C)cc3)C[C@@]21C [drawing 268]
31 | ≤ 0.1 µM | CC(C)(C)C#C[C@]1(O)CC[C@H]2[C@@H]3CCC4=CC(=O)CCC4=C3[C@@H](c3ccc(N4CCCC4)cc3)C[C@@]21C [drawing 276]
32 | > 0.1 µM | CC(C)(C)C#C[C@]1(O)CC[C@H]2[C@@H]3CCC4=CC(=O)CCC4=C3[C@@H](c3cccc(C4CC4)c3)C[C@@]21C [drawing 279]
33 | ≤ 0.1 µM | Cc1cc([C@H]2C[C@@]3(C)[C@@H](CC[C@@]3(O)C#CC(C)(C)C)[C@@H]3CCC4=CC(=O)CCC4=C32)ccc1N(C)C [drawing 283]
34 | ≤ 0.1 µM | CN(C)c1ccc([C@H]2C[C@@]3(C)[C@@H](CC[C@@]3(O)C#CC(C)(C)C)[C@@H]3CCC4=CC(=O)CCC4=C32)cc1F [drawing 284]
35 | ≤ 0.1 µM | Cc1c(F)cc([C@H]2C[C@@]3(C)[C@@H](CC[C@@]3(O)C#Cc3ccc(S(C)(=O)=O)cc3)[C@@H]3CCC4=CC(=O)CCC4=C32)cc1F [drawing 293]
36 | ≤ 0.1 µM | CC(C)C#C[C@]1(O)CC[C@H]2[C@@H]3CCC4=CC(=O)CCC4=C3[C@@H](c3c(F)cc(N4CCOCC4)cc3F)C[C@@]21C [drawing 294]
37 | ≤ 0.1 µM | CC(C)C#C[C@]1(O)CC[C@H]2[C@@H]3CCC4=CC(=O)CCC4=C3[C@@H](c3cc(F)c(C(C)C)c(F)c3)C[C@@]21C [drawing 299]
38 | ≤ 0.1 µM | CN(C)c1ccc([C@H]2C[C@@]3(C)[C@@H](CC[C@@]3(O)C#CC3CC3)[C@@H]3CCC4=CC(=O)CCC4=C32)c(F)c1F [drawing 303]
39 | ≤ 0.1 µM | CN(C)c1cc(F)c([C@H]2C[C@@]3(C)[C@@H](CC[C@@]3(O)C#CC(C)(C)C)[C@@H]3CCC4=CC(=O)CCC4=C32)cc1F [drawing 304]
40 | ≤ 0.1 µM | CCC#C[C@]1(O)CC[C@H]2[C@@H]3CCC4=CC(=O)CCC4=C3[C@@H](c3ccc4c(c3)OCCO4)C[C@@]21C [drawing 324]
41 | ≤ 0.1 µM | CC(C)(C)C#C[C@]1(O)CC[C@H]2[C@@H]3CCC4=CC(=O)CCC4=C3[C@@H](c3ccc4c(c3)OCO4)C[C@@]21C [drawing 331]
